Data reported in patent publication US9580409B2, “Modulators of opioid receptors and methods of use thereof” (priority 2011, dated 2017).

What was measured:
mu-opioid receptor [1] = biological target: T1, mu-opioid receptor (Homo sapiens, UniProt P35372); assay: biochemical; conditions: read-out: GTP Activity
Target sequence in this assay (P35372 whole entry, species assumed): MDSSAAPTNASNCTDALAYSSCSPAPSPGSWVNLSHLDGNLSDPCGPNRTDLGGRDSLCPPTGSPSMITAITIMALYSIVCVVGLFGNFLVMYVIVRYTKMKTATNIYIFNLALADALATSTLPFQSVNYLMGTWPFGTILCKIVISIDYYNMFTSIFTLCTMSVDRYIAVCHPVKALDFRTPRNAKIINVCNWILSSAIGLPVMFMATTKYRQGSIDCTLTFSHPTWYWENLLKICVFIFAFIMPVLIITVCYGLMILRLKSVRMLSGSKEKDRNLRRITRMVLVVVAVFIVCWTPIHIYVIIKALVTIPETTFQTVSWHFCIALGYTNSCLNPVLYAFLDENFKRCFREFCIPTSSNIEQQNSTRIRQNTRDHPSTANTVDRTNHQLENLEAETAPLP

mu-opioid receptor [2] = biological target: T1, mu-opioid receptor; assay: cell-based; conditions: read-out: BArr Activity
Target sequence in this assay (P35372 whole entry, species assumed): as above
Target sequence in this assay (P32121 whole entry partner, species assumed): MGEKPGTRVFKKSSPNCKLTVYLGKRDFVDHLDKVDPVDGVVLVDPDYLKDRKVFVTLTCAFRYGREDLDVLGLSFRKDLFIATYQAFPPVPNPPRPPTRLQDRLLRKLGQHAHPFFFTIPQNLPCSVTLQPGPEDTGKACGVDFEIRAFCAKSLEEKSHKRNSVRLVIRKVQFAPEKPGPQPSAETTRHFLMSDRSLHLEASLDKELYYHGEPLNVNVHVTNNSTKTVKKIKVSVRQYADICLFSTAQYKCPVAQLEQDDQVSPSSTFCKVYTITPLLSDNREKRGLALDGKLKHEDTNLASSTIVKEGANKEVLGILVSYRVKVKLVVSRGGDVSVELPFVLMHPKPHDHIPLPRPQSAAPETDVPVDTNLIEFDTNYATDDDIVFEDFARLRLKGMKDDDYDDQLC

[3] = […], class symbol combines EC50 and efficacy

SMILES: COc1cc(OC)cc(N2C(N)=C(c3nc4ccccc4[nH]3)C(=O)C2C)c1 (centres unmarked) [compound 1]
- EC50 (mu-opioid receptor [1]; class symbols): 0.1 to 1 µM
- EC50 (mu-opioid receptor [2]; class symbols): < 10 µM

SMILES: COc1cc(OC)cc(N2C(N)=C(c3nc4ccccc4[nH]3)C(=O)C2(C)C)c1 [compound 2]
- EC50 (mu-opioid receptor [1]; class symbols): 0.1 to 1 µM
- EC50 (mu-opioid receptor [2]; class symbols): < 10 µM

SMILES: CCC1C(=O)C(c2nc3ccccc3[nH]2)=C(N)N1c1cc(OC)cc(OC)c1 (centres unmarked) [compound 54]
- EC50 (mu-opioid receptor [1]; class symbols): 0.1 to 1 µM
- EC50 (mu-opioid receptor [2]; class symbols): < 10 µM

SMILES: COc1cc(OC)cc(N2C(N)=C(c3nc4ccccc4[nH]3)C(=O)C2C(C)C)c1 (centres unmarked) [compound 55]
- EC50 (mu-opioid receptor [1]; class symbols): 0.1 to 1 µM
- EC50 (mu-opioid receptor [2]; class symbols): < 10 µM

SMILES: CNC1=C(c2nc3ccccc3[nH]2)C(=O)CN1c1cc(OC)cc(OC)c1 [compound 58]
- EC50 (mu-opioid receptor [1]; class symbols): 0.1 to 1 µM
- EC50 (mu-opioid receptor [2]; class symbols): < 10 µM

SMILES: CNC1=C(c2nc3ccccc3[nH]2)C(=O)C(C)(C)N1c1cc(OC)cc(OC)c1 [compound 79]
- EC50 (mu-opioid receptor [1]; class symbols): < 0.1 µM
- EC50 (mu-opioid receptor [2]; class symbols): < 10 µM

SMILES: COc1cc(OC)cc(N2C(N)=C(c3nc4ccccc4[nH]3)C(=O)[C@H]2C)c1 [compound 82]
- EC50 (mu-opioid receptor [1]; class symbols): < 0.1 µM
- EC50 (mu-opioid receptor [2]; class symbols): < 10 µM

SMILES: CCNC1=C(c2nc3ccccc3[nH]2)C(=O)CN1c1cc(OC)cc(OC)c1 [compound 88]
- EC50 (mu-opioid receptor [1]; class symbols): 0.1 to 1 µM
- EC50 (mu-opioid receptor [2]; class symbols): < 10 µM

SMILES: CCNC1=C(c2nc3ccccc3[nH]2)C(=O)C(C)(C)N1c1cc(OC)cc(OC)c1 [compound 89]
- EC50 (mu-opioid receptor [1]; class symbols): < 0.1 µM
- EC50 (mu-opioid receptor [2]; class symbols): < 10 µM

SMILES: COc1cc(OC)cc(N2C(NC(C)C)=C(c3nc4ccccc4[nH]3)C(=O)C2(C)C)c1 [compound 90]
- EC50 (mu-opioid receptor [1]; class symbols): 0.1 to 1 µM
- EC50 (mu-opioid receptor [2]; class symbols): < 10 µM

SMILES: CC[C@H]1C(=O)C(c2nc3ccccc3[nH]2)=C(N)N1c1cc(OC)cc(OC)c1 [compound 96]
- EC50 (mu-opioid receptor [1]; class symbols): < 0.1 µM
- EC50 (mu-opioid receptor [2]; class symbols): < 10 µM

SMILES: COc1cc(OC)cc(N2C(N)=C(c3nc4ccccc4[nH]3)C(=O)[C@@H]2C(C)C)c1 [compound 98]
- EC50 (mu-opioid receptor [1]; class symbols): < 0.1 µM
- EC50 (mu-opioid receptor [2]; class symbols): < 10 µM

SMILES: CNC1=C(c2nc3ccccc3[nH]2)C(=O)C2(CCC2)N1c1cc(OC)cc(OC)c1 [compound 109]
- EC50 (mu-opioid receptor [1]; class symbols): < 0.1 µM
- EC50 (mu-opioid receptor [2]; class symbols): < 10 µM

SMILES: CNC1=C(c2nc3ccccc3[nH]2)C(=O)C(C)N1c1cc(OC)cc(OC)c1 (centres unmarked) [compound 121]
- EC50 (mu-opioid receptor [1]; class symbols): < 0.1 µM
- EC50 (mu-opioid receptor [2]; class symbols): < 10 µM

SMILES: CNC1=C(c2nc3ccccc3[nH]2)C(=O)[C@@H](C)N1c1cc(OC)cc(OC)c1 [compound 136]
- EC50 (mu-opioid receptor [1]; class symbols): < 0.1 µM
- EC50 (mu-opioid receptor [2]; class symbols): < 10 µM

SMILES: CNC1=C(c2nc3ccccc3[nH]2)C(=O)[C@H](C)N1c1cc(OC)cc(OC)c1 [compound 137]
- EC50 (mu-opioid receptor [1]; class symbols): 0.1 to 1 µM
- EC50 (mu-opioid receptor [2]; class symbols): < 10 µM

SMILES: CCC1C(=O)C(c2nc3ccccc3[nH]2)=C(NC)N1c1cc(OC)cc(OC)c1 (centres unmarked) [compound 153]
- EC50 (mu-opioid receptor [1]; class symbols): < 0.1 µM
- EC50 (mu-opioid receptor [2]; class symbols): < 10 µM

SMILES: CCNC1=C(c2nc3ccccc3[nH]2)C(=O)C(CC)N1c1cc(OC)cc(OC)c1 (centres unmarked) [compound 154]
- EC50 (mu-opioid receptor [1]; class symbols): 0.1 to 1 µM
- EC50 (mu-opioid receptor [2]; class symbols): < 10 µM

SMILES: COc1cc(OC)cc(N2C(N)=C(c3nc4ccccc4[nH]3)C(=O)C23CCCC3)c1 [compound 180]
- EC50 (mu-opioid receptor [1]; class symbols): 0.1 to 1 µM
- EC50 (mu-opioid receptor [2]; class symbols): < 10 µM

SMILES: COc1cc(OC)cc(N2C(N)=C(c3nc4ccccc4[nH]3)C(=O)C23CCOC3)c1 (centres unmarked) [compound 181]
- EC50 (mu-opioid receptor [1]; class symbols): 0.1 to 1 µM
- EC50 (mu-opioid receptor [2]; class symbols): < 10 µM

SMILES: CC[C@H]1C(=O)C(c2nc3ccccc3[nH]2)=C(NC)N1c1cc(OC)cc(OC)c1 [compound 185]
- EC50 (mu-opioid receptor [1]; class symbols): < 0.1 µM
- EC50 (mu-opioid receptor [2]; class symbols): < 10 µM

SMILES: CCNC1=C(c2nc3ccccc3[nH]2)C(=O)[C@H](CC)N1c1cc(OC)cc(OC)c1 [compound 187]
- EC50 (mu-opioid receptor [1]; class symbols): < 0.1 µM
- EC50 (mu-opioid receptor [2]; class symbols): < 10 µM

SMILES: CNC1=C(c2nc3ccccc3[nH]2)C(=O)C2(CCCC2)N1c1cc(OC)cc(OC)c1 [compound 188]
- EC50 (mu-opioid receptor [1]; class symbols): < 0.1 µM
- EC50 (mu-opioid receptor [2]; class symbols): < 10 µM

SMILES: COc1cc(OC)cc(N2C(N)=C(c3nc4ccccc4[nH]3)C(=O)C2CCO)c1 (centres unmarked) [compound 203]
- EC50 (mu-opioid receptor [1]; [3]): < 0.1 µM
- EC50 (mu-opioid receptor [2]; [3]): < 10 µM

SMILES: CNC1=C(c2nc3ccccc3[nH]2)C(=O)C2(CCOC2)N1c1cc(OC)cc(OC)c1 (centres unmarked) [compound 208]
- EC50 (mu-opioid receptor [1]; [3]): < 0.1 µM
- EC50 (mu-opioid receptor [2]; [3]): < 10 µM

SMILES: CNC1=C(c2nc3ccccc3[nH]2)C(=O)[C@]2(CCOC2)N1c1cc(OC)cc(OC)c1 [compound 213]
- EC50 (mu-opioid receptor [1]; [3]): < 0.1 µM
- EC50 (mu-opioid receptor [2]; [3]): < 10 µM

SMILES: CNC1=C(c2nc3ccccc3[nH]2)C(=O)[C@@]2(CCOC2)N1c1cc(OC)cc(OC)c1 [compound 214]
- EC50 (mu-opioid receptor [1]; [3]): < 0.1 µM
- EC50 (mu-opioid receptor [2]; [3]): < 10 µM

SMILES: CNC1=C(c2nc3ccccc3[nH]2)C(=O)C(CCO)N1c1cc(OC)cc(OC)c1 (centres unmarked) [compound 215]
- EC50 (mu-opioid receptor [1]; [3]): < 0.1 µM
- EC50 (mu-opioid receptor [2]; [3]): < 10 µM

SMILES: CNC1=C(c2nc3ccccc3[nH]2)C(=O)C(CCOC)N1c1cc(OC)cc(OC)c1 (centres unmarked) [compound 218]
- EC50 (mu-opioid receptor [1]; [3]): < 0.1 µM
- EC50 (mu-opioid receptor [2]; [3]): < 10 µM

SMILES: COc1cc(OC)cc(N2C(N)=C(c3nc4ccccc4[nH]3)C(=O)C2CCNC(C)=O)c1 (centres unmarked) [compound 233]
- EC50 (mu-opioid receptor [1]; [3]): < 0.1 µM
- EC50 (mu-opioid receptor [2]; [3]): < 10 µM

SMILES: COc1cc(OC)cc(N2C(N)=C(c3nc4ccccc4[nH]3)C(=O)C23CCCN(C(C)=O)C3)c1 (centres unmarked) [compound 294]
- EC50 (mu-opioid receptor [1]; [3]): 1 to 10 µM

SMILES: COc1cc(OC)cc(N2C(N)=C(c3nc4ccccc4[nH]3)C(=O)C23CCCOC3)c1 (centres unmarked) [compound 295]
- EC50 (mu-opioid receptor [1]; [3]): 0.1 to 1 µM

SMILES: COCC1(C)C(=O)C(c2nc3ccccc3[nH]2)=C(N)N1c1cc(OC)cc(OC)c1 (centres unmarked) [compound 296]
- EC50 (mu-opioid receptor [1]; [3]): 0.1 to 1 µM

SMILES: CNC1=C(c2nc3ccccc3[nH]2)C(=O)[C@](C)(COC)N1c1cc(OC)cc(OC)c1 [compound 297]
- EC50 (mu-opioid receptor [1]; [3]): 0.1 to 1 µM

SMILES: CNC1=C(c2nc3ccccc3[nH]2)C(=O)[C@@](C)(COC)N1c1cc(OC)cc(OC)c1 [compound 298]
- EC50 (mu-opioid receptor [1]; [3]): < 0.1 µM

SMILES: CNC1=C(c2nc3ccccc3[nH]2)C(=O)[C@](C)(CCOC)N1c1cc(OC)cc(OC)c1 [compound 299]
- EC50 (mu-opioid receptor [1]; [3]): 0.1 to 1 µM

SMILES: CNC1=C(c2nc3ccccc3[nH]2)C(=O)[C@@](C)(CCOC)N1c1cc(OC)cc(OC)c1 [compound 300]
- EC50 (mu-opioid receptor [1]; [3]): < 0.1 µM

SMILES: COc1cc(OC)cc(N2C(N)=C(c3nc4ccccc4[nH]3)C(=O)[C@]2(C)CCNC(C)=O)c1 [compound 301]
- EC50 (mu-opioid receptor [1]; [3]): 0.1 to 1 µM

SMILES: COc1cc(OC)cc(N2C(N)=C(c3nc4ccccc4[nH]3)C(=O)[C@@]2(C)CCNC(C)=O)c1 [compound 302]
- EC50 (mu-opioid receptor [1]; [3]): 0.1 to 1 µM

SMILES: CNC1=C(c2nc3ccccc3[nH]2)C(=O)[C@@](C)(CCNC(C)=O)N1c1cc(OC)cc(OC)c1 [compound 304]
- EC50 (mu-opioid receptor [1]; [3]): < 0.1 µM

SMILES: CNC1=C(c2nc3ccccc3[nH]2)C(=O)[C@@]2(CCCOC2)N1c1cc(OC)cc(OC)c1 [compound 306]
- EC50 (mu-opioid receptor [1]; [3]): 0.1 to 1 µM

SMILES: CNC1=C(c2nc3ccccc3[nH]2)C(=O)C(C)(CC(C)O)N1c1cc(OC)cc(OC)c1 (centres unmarked) [compound 309]
- EC50 (mu-opioid receptor [1]; [3]): < 0.1 µM

SMILES: CNC1=C(c2nc3ccccc3[nH]2)C(=O)C2(CCC(O)C2)N1c1cc(OC)cc(OC)c1 (centres unmarked) [compound 311]
- EC50 (mu-opioid receptor [1]; [3]): < 0.1 µM

SMILES: CNC1=C(c2nc3ccccc3[nH]2)C(=O)C2(CCC(=O)C2)N1c1cc(OC)cc(OC)c1 (centres unmarked) [compound 312]
- EC50 (mu-opioid receptor [1]; [3]): < 0.1 µM

SMILES: CCOC(=O)C1CC2(CC1=O)C(=O)C(c1nc3ccccc3[nH]1)=C(N)N2c1cc(OC)cc(OC)c1 (centres unmarked) [compound 313]
- EC50 (mu-opioid receptor [1]; [3]): 1 to 10 µM

SMILES: [2H]C1CC2(CC1=O)C(=O)C(c1nc3ccccc3[nH]1)=C(NC)N2c1cc(OC)cc(OC)c1 (centres unmarked) [compound 314]
- EC50 (mu-opioid receptor [1]; [3]): < 0.1 µM

SMILES: CNC1=C(c2nc3ccccc3[nH]2)C(=O)[C@H](CNC(=O)COC)N1c1cc(OC)cc(OC)c1 [compound 315]
- EC50 (mu-opioid receptor [1]; [3]): < 0.1 µM

SMILES: CNC1=C(c2nc3ccccc3[nH]2)C(=O)[C@@H](CNC(=O)COC)N1c1cc(OC)cc(OC)c1 [compound 316]
- EC50 (mu-opioid receptor [1]; [3]): < 0.1 µM

SMILES: CNC1=C(c2nc3ccccc3[nH]2)C(=O)[C@](C)(CNC(=O)COC)N1c1cc(OC)cc(OC)c1 [compound 317]
- EC50 (mu-opioid receptor [1]; [3]): 0.1 to 1 µM

SMILES: CNC1=C(c2nc3ccccc3[nH]2)C(=O)[C@@](C)(CNC(=O)COC)N1c1cc(OC)cc(OC)c1 [compound 318]
- EC50 (mu-opioid receptor [1]; [3]): < 0.1 µM
